Drawing on patent US9834542B2, “LXR modulators” (BRISTOL-MYERS SQUIBB COMPANY, priority 2013, dated 2017), this text covers EC50 and Emax for 16 compounds.

In the experiment the target is T1, LXRβ (Homo sapiens, UniProt P55055).
T1 construct: Co-transfection expression plasmids, comprising full-length LXRα (pCMX-h LXRα[…] or LXRβ (pCMX-hLXRβ)); expressed in transfected cells; host or cells: CV-1 African Green Monkey Kidney Cells
T1 sequence (P55055 1-460): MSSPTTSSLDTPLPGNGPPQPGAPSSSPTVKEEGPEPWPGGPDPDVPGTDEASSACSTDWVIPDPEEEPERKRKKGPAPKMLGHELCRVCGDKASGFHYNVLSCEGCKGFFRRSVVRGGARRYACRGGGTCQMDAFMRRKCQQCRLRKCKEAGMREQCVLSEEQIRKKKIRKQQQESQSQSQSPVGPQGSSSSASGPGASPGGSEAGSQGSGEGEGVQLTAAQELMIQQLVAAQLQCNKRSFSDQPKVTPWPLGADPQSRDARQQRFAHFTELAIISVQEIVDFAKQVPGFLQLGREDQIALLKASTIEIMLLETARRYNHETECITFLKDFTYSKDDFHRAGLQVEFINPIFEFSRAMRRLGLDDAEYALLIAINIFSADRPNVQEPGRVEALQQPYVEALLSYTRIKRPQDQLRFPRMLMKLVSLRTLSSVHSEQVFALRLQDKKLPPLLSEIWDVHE
T1 sequence (P19793 1-462 partner): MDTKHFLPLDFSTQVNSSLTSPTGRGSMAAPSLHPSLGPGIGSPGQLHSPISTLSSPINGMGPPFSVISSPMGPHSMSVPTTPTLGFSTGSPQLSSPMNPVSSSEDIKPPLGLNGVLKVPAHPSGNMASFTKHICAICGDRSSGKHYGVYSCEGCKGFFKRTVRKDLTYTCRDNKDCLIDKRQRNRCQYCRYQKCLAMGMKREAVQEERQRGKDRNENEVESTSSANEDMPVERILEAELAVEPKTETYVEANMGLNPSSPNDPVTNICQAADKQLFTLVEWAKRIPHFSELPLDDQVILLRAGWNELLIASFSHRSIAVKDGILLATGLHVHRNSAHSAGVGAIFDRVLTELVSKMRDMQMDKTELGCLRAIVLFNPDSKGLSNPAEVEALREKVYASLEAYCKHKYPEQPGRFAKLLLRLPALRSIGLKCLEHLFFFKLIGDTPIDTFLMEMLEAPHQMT
Briefly: Co-transfection assay (LXRE luciferase reporter), LXRβ. To be noted: for EC50: CV-1 cells transfected with pCMX-hLXRβ and LXREx1-Tk-Luciferase, 20 hours incubation; for Emax: LXRβ co-transfection, relative to high control 1-(2,4-difluorobenzyl)-2-oxo-6-(4-phenoxyphenyl)-4-(trifluoromethyl)-1,2-dihydropyridine-3-carbonitrile, read-out: % Efficacy. The experiment is classed as cell-based. An outline of the steps: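 CV-1 cells transiently co-transfected with full-length human LXRβ expression plasmid, LXREx1-Tk-luciferase reporter and β-galactosidase control, then exposed to compound for 20 h at 37 °C. Luciferase luminescence read; EC50 from 11-point, ½-log dose–response fit, efficacy relative to high-control agonist maximum.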
Background: A reporter such as luciferase makes a cellular process visible.

Usually EC50 stands for the midpoint of the concentration-response curve. Regarding `Cc1nc(C(=O)C(C)C)cn1-c1ccc(-c2cccc(S(C)(=O)=O)c2)cc1-n1nncc1-c1ccc(OC(F)(F)F)cc1` [Example 234, 2-methyl-1-(2-methyl-1-(3′-(methylsulfonyl)-3-(5-(4-(trifluoromethoxy)phenyl)-1H-1,2,3-triazol-1-yl)-[1,1′-biphenyl]-4-yl)-1H-imidazol-4-yl)propan-1-one], the EC50 turned out to be 1200 nM and the Emax was 75%.
Taken in the same sequence, the figures for `Cc1nc(C(=O)C(C)C)cn1-c1ccc(-c2cc(F)c(CO)c(S(C)(=O)=O)c2)cc1-n1nncc1-c1ccc(OC(F)(F)F)cc1` [Example 235, 1-(1-(3′-fluoro-4′-(hydroxymethyl)-5′-(methylsulfonyl)-3-(5-(4-(trifluoromethoxy)phenyl)-1H-1,2,3-triazol-1-yl)-[1,1′-biphenyl]-4-yl)-2-methyl-1H-imidazol-4-yl)-2-methylpropan-1-one] were 2270 nM and 85%.
For `Cc1nc(C(F)(F)F)cn1-c1ccc(-c2ccc(CCO)c(S(C)(=O)=O)c2)cc1-n1nncc1-c1ccc(OC(F)(F)F)cc1` [Example 236, 2-(4′-(2-methyl-4-(trifluoromethyl)-1H-imidazol-1-yl)-3-(methylsulfonyl)-3′-(5-(4-(trifluoromethoxy)phenyl)-1H-1,2,3-triazol-1-yl)-[1,1′-biphenyl]-4-yl)ethanol], the concentration for a half-maximal effect (EC50) is 198 nM and the Emax came out at 89%.
On to `Cc1nc(C(F)(F)F)cn1-c1ccc(-c2cc(F)c(CCO)c(S(C)(=O)=O)c2)cc1-n1nncc1-c1ccc(OC(F)(F)F)cc1` [Example 237, 2-(3-fluoro-4′-(2-methyl-4-(trifluoromethyl)-1H-imidazol-1-yl)-5-(methylsulfonyl)-3′-(5-(4-(trifluoromethoxy)phenyl)-1H-1,2,3-triazol-1-yl)-[1,1′-biphenyl]-4-yl)ethanol], for which the EC50 is 192 nM and the Emax was found to be 98%.
Taken in the same sequence, the figures for `COCS(=O)(=O)c1cccc(-c2ccc(-n3cc(C(F)(F)F)nc3C)c(-n3nncc3-c3ccc(OC(F)(F)F)cc3)c2)c1` [Example 238, 1-(3′-((methoxymethyl)sulfonyl)-4-(2-methyl-4-(trifluoromethyl)-1H-imidazol-1-yl)-[1,1′-biphenyl]-3-yl)-5-(4-(trifluoromethoxy)phenyl)-1H-1,2,3-triazole] were 489 nM and 90%.
As for `Cc1nc(C(F)(F)F)c(Cl)n1-c1ccc(-c2cc(F)c(CO)c(S(C)(=O)=O)c2)cc1-c1cnnn1-c1ccc(Cl)cc1` [Example 240, {4′-[5-chloro-2-methyl-4-(trifluoromethyl)-1H-imidazol-1-yl]-3′-[1-(4-chlorophenyl)-1H-1,2,3-triazol-5-yl]-3-fluoro-5-(methylsulfonyl)biphenyl-4-yl}methanol], the EC50 was 142 nM and the Emax turned out to be 129%.
For `Cc1nc(C(F)(F)F)cn1-c1ccc(-c2cccc(C(C)(C)C(N)=O)c2)cc1-c1cnnn1-c1ccc(OC(F)(F)F)cc1` [Example 241, 2-methyl-2-{4′-[2-methyl-4-(trifluoromethyl)-1H-imidazol-1-yl]-3′-(1-{4-[(trifluoromethyl)oxy]phenyl}-1H-1,2,3-triazol-5-yl)biphenyl-3-yl}propanamide], the EC50 stood at 405 nM and the Emax is 111%.
As for `Cc1nc(C(F)(F)F)cn1-c1ccc(-c2cccc(S(C)(=O)=O)c2)cc1-c1cnnn1-c1ccc(OC(F)(F)F)cc1` [Example 242, 5-{3′-(methylsulfonyl)-4-[2-methyl-4-(trifluoromethyl)-1H-imidazol-1-yl]biphenyl-3-yl}-1-{4-[(trifluoromethyl)oxy]phenyl}-1H-1,2,3-triazole], the EC50 was 201 nM and the Emax came to 105%.
In the case of `Cc1nc(C(F)(F)F)c(Cl)n1-c1ccc(-c2cccc(S(C)(=O)=O)c2)cc1-c1cnnn1-c1ccc(Cl)cc1` [Example 243, 5-{4-[5-chloro-2-methyl-4-(trifluoromethyl)-1H-imidazol-1-yl]-3′-(methylsulfonyl)biphenyl-3-yl}-1-(4-chlorophenyl)-1H-1,2,3-triazole], the EC50 was 238 nM and the Emax amounted to 107%.
Consider `Cc1nc(C(F)(F)F)cn1-c1ccc(-c2cc(F)c(CO)c(S(C)(=O)=O)c2)cc1-c1cnnn1-c1ccc(OC(F)(F)F)cc1` [Example 244, [3-fluoro-5-(methylsulfonyl)-4′-[2-methyl-4-(trifluoromethyl)-1H-imidazol-1-yl]-3′-(1-{4-[(trifluoromethyl)oxy]phenyl}-1H-1,2,3-triazol-5-yl)biphenyl-4-yl]methanol], for which the response was half-maximal at 223 nM (EC50) and the Emax was found to be 110%.
The corresponding values for `Cc1nc(C(F)F)cn1-c1ccc(-c2cccc(S(C)(=O)=O)c2)cc1-c1cnnn1Cc1ccc(Cl)cc1` [Example 245, 1-(4-chlorobenzyl)-5-(4-(4-(difluoromethyl)-2-methyl-1H-imidazol-1-yl)-3′-(methylsulfonyl)-[1,1′-biphenyl]-3-yl)-1H-1,2,3-triazole] are 216 nM and 102%.
Regarding `CNS(=O)(=O)c1cccc(-c2ccc(-n3cc(C(F)F)nc3C)c(-c3cnnn3Cc3ccc(Cl)cc3)c2)c1` [Example 246, 3′-(1-(4-chlorobenzyl)-1H-1,2,3-triazol-5-yl)-4′-(4-(difluoromethyl)-2-methyl-1H-imidazol-1-yl)-N-methyl-[1,1′-biphenyl]-3-sulfonamide], a half-maximal effect (EC50) was put at 475 nM and the Emax amounted to 91%.
The corresponding values for `CCS(=O)(=O)c1cccc(-c2ccc(-n3cc(C(F)F)nc3C)c(-c3cnnn3Cc3ccc(Cl)cc3)c2)c1` [Example 247, 1-(4-chlorobenzyl)-5-(4-(4-(difluoromethyl)-2-methyl-1H-imidazol-1-yl)-3′-(ethylsulfonyl)-[1,1′-biphenyl]-3-yl)-1H-1,2,3-triazole] are 315 nM and 99%.
As for `Cc1nc(C(F)F)cn1-c1ccc(-c2cc(F)c(CO)c(S(C)(=O)=O)c2)cc1-c1cnnn1Cc1ccc(Cl)cc1` [Example 248, (3′-(1-(4-chlorobenzyl)-1H-1,2,3-triazol-5-yl)-4′-(4-(difluoromethyl)-2-methyl-1H-imidazol-1-yl)-3-fluoro-5-(methylsulfonyl)-[1,1′-biphenyl]-4-yl)methanol], the EC50 worked out at 185 nM and the Emax is 88%.
Consider `Cc1nc(C(F)(F)F)cn1-c1ccc(-c2cccc(S(C)(=O)=O)c2)cc1-c1ccnn1-c1ccc(Cl)cc1` [Example 286, 1-(4-chlorophenyl)-5-{3′-(methylsulfonyl)-4-[2-methyl-4-(trifluoromethyl)-1H-imidazol-1-yl]biphenyl-3-yl}-1H-pyrazole], for which the EC50 was found to be 152 nM and the Emax worked out at 84%.
The corresponding values for `Cc1cc(-c2cc(-c3cc(F)c(CO)c(S(C)(=O)=O)c3)ccc2-n2cc(C(F)(F)F)nc2C)n(-c2ccc(OC(F)F)cc2)n1` [Example 287, (3′-(1-(4-(difluoromethoxy)phenyl)-3-methyl-1H-pyrazol-5-yl)-3-fluoro-4′-(2-methyl-4-(trifluoromethyl)-1H-imidazol-1-yl)-5-(methylsulfonyl)biphenyl-4-yl)methanol] are 26 nM and 80%.
